Experiments:
Amaranthus retroflexus = assay: Weeding effect in post-emergence stage; type: in vivo; settings: 250 g/ha; 2 leaf stage; 15 days after application; fresh weight control rate
Excerpt: (§1) The activity level criteria for harmful plant damage (i.e., growth control rate) are as follows: • Level 5: growth control rate is above 85%; • Level 4: growth control rate is greater than or equal to 60% and less than 85%; • Level 3: growth control rate is greater than or equal to 40% and less than 60%; • Level 2: growth control rate is greater than or equal to 20% and less than 40%; • Level 1: growth control rate is greater than or equal to 5% and less than 20%; • Level 0: growth control rate is less than 5%.
(§2) The above growth control rates are fresh weight control rates.
(§3) Experiment on weeding effect in post-emergence stage: monocotyledonous and dicotyledonous weed seeds (Descurainia sophia, Capsella bursa-pastoris, Galium aparine, Stellaria media, Lithospermum arvense, Rorippa indica, Alopecurus aequalis, Beckmannia syzigachne, Sclerochloa dura, Phleum paniculatum, Bromus japonicus, Aegilops tauschii, Phalaris arundinacea, Amaranthus retroflexus, Chenopodiaceae, Commelina communis, Sonchus arvensis, convolvulus arvensis, Cirsium setosum, Solanum nigrum, Acalypha australis, Digitaria sanguinalis, Echinochloa crusgalli, Setaria viridis, Setaria glauca, Leptochloa chinensis, Monochoria vaginalis, Sagittaria trifolia, Scirpus juncoides, Cyperus rotundus, Cyperus iria, Cyperus difformis, Fimbristylis, Portulaca oleracea, Xanthium sibiricum, Pharbitis nil) and major crop seeds (wheat, corn, rice, soybean, cotton, oilseed rape, millet, sorghum, potato, sesame, ricinus) were placed in plastic pots filled with soil, then covered with 0.5-2 cm of soil, allowed to grow in a good greenhouse environment. After 2 weeks of sowing, the test plants were treated in the 2 leaf stage. The tested compounds of the present invention were respectively dissolved in acetone, then added with Tween 80 and 1.5 liter/ha of emulsifiable concentrate of methyl oleate as synergist, diluted with a certain amount of water to obtain a solution with a certain concentration, and sprayed with a spray tower onto the plants. After the application, the plants were cultured for 15 days in the greenhouse, and then the experimental results of the weeding were counted. The doses of the used compounds were 500, 250, 125, 60, 30, 15 g/ha, and the averages were obtained by repeating for three times.

Echinochloa crusgali = assay: Weeding effect in post-emergence stage; type: in vivo; settings: 250 g/ha; 2 leaf stage; 15 days after application; fresh weight control rate
Excerpt: as §1, §2, §3

| SMILES | weeding effect in post-emergence stage, activity level (growth control rate), Amaranthus retroflexus (Amaranthus retroflexus) | weeding effect in post-emergence stage, activity level (growth control rate), Echinochloa crusgali (Echinochloa crusgali) |
| --- | --- | --- |
| COC(=O)CC[S@@+]([O-])c1c(C(F)(F)F)ccc(C(=O)Nc2nnc(C)o2)c1OC [Compound 354] | 5 (Level 5: growth control rate is above 85%) | 5 (Level 5: growth control rate is above 85%) |
| COc1c(C(=O)Nc2nnc(C)o2)ccc(C(F)(F)F)c1[S+]([O-])COC(=O)C(C)(C)C (stereo not drawn) [Compound 355] | 5 (Level 5: growth control rate is above 85%) | 5 (Level 5: growth control rate is above 85%) |
| COc1c(C(=O)Nc2nnc(C)o2)ccc(C(F)(F)F)c1[S@+]([O-])Cc1cn(C)nc1C [Compound 356] | 5 (Level 5: growth control rate is above 85%) | 5 (Level 5: growth control rate is above 85%) |
| CCCn1nnnc1NC(=O)c1ccc(C(F)(F)F)c([S@+]([O-])CCC)c1F [Compound 383] | 5 (Level 5: growth control rate is above 85%) | 5 (Level 5: growth control rate is above 85%) |
| CC[S@@+]([O-])c1c(C(F)(F)F)ccc(C(=O)Nc2nnc(C(C)C)o2)c1OC [Compound 425] | 5 (Level 5: growth control rate is above 85%) | 5 (Level 5: growth control rate is above 85%) |
| CC[S@@+]([O-])c1c(C(F)(F)F)ccc(C(=O)Nc2nnc(C3CC3)o2)c1OC [Compound 428] | 5 (Level 5: growth control rate is above 85%) | 5 (Level 5: growth control rate is above 85%) |
| CCCCn1nnnc1NC(=O)c1ccc(C(F)(F)F)c([S@+]([O-])CC)c1OC [Compound 448] | 5 (Level 5: growth control rate is above 85%) | 5 (Level 5: growth control rate is above 85%) |
| CC[S@@+]([O-])c1c(C(F)(F)F)ccc(C(=O)Nc2ccon2)c1OC [Compound 457] | 5 (Level 5: growth control rate is above 85%) | 5 (Level 5: growth control rate is above 85%) |
| CC[S@@+]([O-])c1c(C(F)(F)F)ccc(C(=O)Nc2nocc2C)c1OC [Compound 458] | 5 (Level 5: growth control rate is above 85%) | 5 (Level 5: growth control rate is above 85%) |
| CC[S@@+]([O-])c1c(C(F)(F)F)ccc(C(=O)Nc2ncnn2C)c1OC [Compound 471] | 5 (Level 5: growth control rate is above 85%) | 5 (Level 5: growth control rate is above 85%) |
| Cc1ccc(C(=O)Nc2nnnn2C)c(C)c1[S@+]([O-])C(C)C [Compound 476] | 5 (Level 5: growth control rate is above 85%) | 5 (Level 5: growth control rate is above 85%) |
| Cc1ccc(C(=O)Nc2nnnn2C)c(C)c1[S@+]([O-])CC(C)C [Compound 477] | 5 (Level 5: growth control rate is above 85%) | 5 (Level 5: growth control rate is above 85%) |
| Cc1ccc(C(=O)Nc2nnnn2C)c(C)c1[S@+]([O-])CC(F)(F)F [Compound 478] | 5 (Level 5: growth control rate is above 85%) | 5 (Level 5: growth control rate is above 85%) |
| CC[S@@+]([O-])c1c(C)ccc(C(=O)Nc2nnc(C)o2)c1C [Compound 481] | 5 (Level 5: growth control rate is above 85%) | 5 (Level 5: growth control rate is above 85%) |
| CCC[S@@+]([O-])c1c(C)ccc(C(=O)Nc2nnc(C)o2)c1C [Compound 482] | 5 (Level 5: growth control rate is above 85%) | 5 (Level 5: growth control rate is above 85%) |
| Cc1nnc(NC(=O)c2ccc(C)c([S@+]([O-])C(C)C)c2C)o1 [Compound 483] | 5 (Level 5: growth control rate is above 85%) | 5 (Level 5: growth control rate is above 85%) |
| Cc1nnc(NC(=O)c2ccc(C)c([S@+]([O-])CC(C)C)c2C)o1 [Compound 484] | 5 (Level 5: growth control rate is above 85%) | 5 (Level 5: growth control rate is above 85%) |
| Cc1nnc(NC(=O)c2ccc(C)c([S@+]([O-])CC(F)(F)F)c2C)o1 [Compound 485] | 5 (Level 5: growth control rate is above 85%) | 5 (Level 5: growth control rate is above 85%) |
| Cc1nnc(NC(=O)c2ccc(C(C)C)c([S@@+](C)[O-])c2C)o1 [Compound 486] | 5 (Level 5: growth control rate is above 85%) | 5 (Level 5: growth control rate is above 85%) |
| Cc1nnc(NC(=O)c2ccc(S(C)(=O)=O)c([S@@+](C)[O-])c2C)o1 [Compound 491] | 5 (Level 5: growth control rate is above 85%) | 5 (Level 5: growth control rate is above 85%) |
| CCC[S@@+]([O-])c1c(S(C)(=O)=O)ccc(C(=O)Nc2nnc(C)o2)c1C [Compound 492] | 5 (Level 5: growth control rate is above 85%) | 5 (Level 5: growth control rate is above 85%) |
| Cc1nnc(NC(=O)c2ccc(S(C)(=O)=O)c([S@+]([O-])C(C)C)c2C)o1 [Compound 493] | 5 (Level 5: growth control rate is above 85%) | 5 (Level 5: growth control rate is above 85%) |
| C=CC[S@@+]([O-])c1c(S(C)(=O)=O)ccc(C(=O)Nc2nnc(C)o2)c1C [Compound 496] | 5 (Level 5: growth control rate is above 85%) | 5 (Level 5: growth control rate is above 85%) |
| C#CC[S@@+]([O-])c1c(S(C)(=O)=O)ccc(C(=O)Nc2nnc(C)o2)c1C [Compound 497] | 5 (Level 5: growth control rate is above 85%) | 5 (Level 5: growth control rate is above 85%) |
| Cc1nnc(NC(=O)c2ccc(S(C)(=O)=O)c([S@+]([O-])CC3CC3)c2C)o1 [Compound 498] | 5 (Level 5: growth control rate is above 85%) | 5 (Level 5: growth control rate is above 85%) |
| Cc1nnc(NC(=O)c2ccc(S(C)(=O)=O)c([S@+]([O-])CCF)c2C)o1 [Compound 499] | 5 (Level 5: growth control rate is above 85%) | 5 (Level 5: growth control rate is above 85%) |
| Cc1nnc(NC(=O)c2ccc(S(C)(=O)=O)c([S@+]([O-])CC(F)(F)F)c2C)o1 [Compound 500] | 5 (Level 5: growth control rate is above 85%) | 5 (Level 5: growth control rate is above 85%) |
